Tests used:
[1] = Stability of itampolin A in biological samples under different storage conditions; format: physicochemical, rat; conditions: for Stability, Three Freeze–Thaw Cycles / Stability, Autosampler 4 °C for 24 h / Stability, Long-Term (at −80 °C for 30 Days) / Stability, Short-Term (at Room Temperature for 4 h): n = 5, in %
Experimental: The stability of itampolin A was investigated by analyzing five replicates of the samples at three QC levels (3, 40, and 1280 ng/mL) under different storage conditions: (1) 4 h exposure at room temperature, (2) 24 h storage in the autosampler at 4 °C, (3) three freeze–thaw cycles, and (4) storage at −80 °C for 30 days. The samples were considered stable if the average percentage concentration deviation was within 15% of the actual value.

p38α = system: p38α; parameters: method as in PMID 30642059; conditions: binding to the DFG-out conformation of p38α; cited from earlier work
[2] = Tissue distribution study in rats after intragastric administration; format: in vivo, Sprague–Dawley rats; conditions: intragastric 25 mg/kg
Experimental: Sprague–Dawley rats (250 ± 20 g) were supplied from the Experimental Animal Centre of China Medical University (Shenyang, China) and housed under unified conditions. All of the animal experiments were conducted in compliance with the Guidelines for Care and Use of Laboratory Animals of China Medical University and the protocols were approved by the Animal Ethics Committee of the institution (code number: CMU2023205). The rats were raised in a standard environment with a temperature of 24 ± 2 °C, relative humidity of 55 ± 10%, and 12 h light/12 h dark cycles. These rats were acclimatized to the environment for at least one week before the experiment, provided free access to drinking water, and fed during this period. Twenty-four SD rats, which were divided into four groups (six rats per group), received 5 mg/kg itampolin A by intravenous administration or 10, 25, and 50 mg/kg itampolin A by intragastric administration for the pharmacokinetics experiments. Twenty SD rats (five rats for each time point) received 25 mg/kg itampolin A by intragastric administration for the tissue distribution study.
Various tissues (heart, liver, spleen, lung, kidney, brain, intestine, and stomach) were harvested and washed with ice-cold 0.9% sodium chloride solution to remove the superficial blood. After being blotted dry with filter paper, each tissue sample weighed accurately was homogenized in 0.9% sodium chloride solution (1:5, w/v). Then, 100 µL of tissue homogenate was taken and processed further like the plasma sample.
Twenty Sprague–Dawley rats were randomly divided into four groups (five rats each) and received a single dose of 25 mg/kg of itampolin A via intragastric administration. The rats were executed by cervical dislocation at 1, 4, 8, and 12 h. Afterwards, various tissue samples, including heart, liver, spleen, lung, kidney, brain, intestine, and stomach, were collected into centrifuged tubes, and then processed with the methods described in “3.5. Sample Preparation”.

[3] = system: non-small-cell lung cancer; parameters: method as in doi:10.2174/1570179414666170215092631; conditions: cited from earlier work
[4] = measured within 12 h, mean ± SD, n = 5

SMILES: COc1c(Br)cc(C[C@H](NC(=O)Cc2ccc(OCCCNC(C)=O)cc2)C(=O)NCCc2cc(Br)c(O)c(Br)c2)cc1Br [itampolin A, Itampolin A]
- Stability, Three Freeze–Thaw Cycles ([1]; liver, spiked 1280 ng/mL): 95.1 ± 9.2
- Stability, Autosampler 4 °C for 24 h ([1]; lung, spiked 3 ng/mL): 102.5 ± 9.3
- Stability, Long-Term (at −80 °C for 30 Days) ([1]; lung, spiked 3 ng/mL): 95.6 ± 4.9
- Stability, Short-Term (at Room Temperature for 4 h) ([1]; lung, spiked 3 ng/mL): 108.7 ± 5.1
- Stability, Three Freeze–Thaw Cycles ([1]; lung, spiked 3 ng/mL): 95.9 ± 7.2
- Stability, Autosampler 4 °C for 24 h ([1]; lung, spiked 40 ng/mL): 99.3 ± 6.9
- Stability, Long-Term (at −80 °C for 30 Days) ([1]; lung, spiked 40 ng/mL): 106.7 ± 8.8
- Stability, Short-Term (at Room Temperature for 4 h) ([1]; lung, spiked 40 ng/mL): 103.1 ± 3.3
- Stability, Three Freeze–Thaw Cycles ([1]; lung, spiked 40 ng/mL): 86.0 ± 4.2
- Stability, Autosampler 4 °C for 24 h ([1]; lung, spiked 1280 ng/mL): 98.5 ±3.1
- Stability, Long-Term (at −80 °C for 30 Days) ([1]; lung, spiked 1280 ng/mL): 96.4 ± 4.8
- Stability, Short-Term (at Room Temperature for 4 h) ([1]; lung, spiked 1280 ng/mL): 101.2 ± 2.9
- Stability, Three Freeze–Thaw Cycles ([1]; lung, spiked 1280 ng/mL): 91.4 ± 5.9
- Stability, Autosampler 4 °C for 24 h ([1]; plasma, spiked 3 ng/mL): 97.3 ± 5.5
- Stability, Long-Term (at −80 °C for 30 Days) ([1]; plasma, spiked 3 ng/mL): 90.5 ± 6.7
- Stability, Short-Term (at Room Temperature for 4 h) ([1]; plasma, spiked 3 ng/mL): 103.9 ± 8.0
- Stability, Three Freeze–Thaw Cycles ([1]; plasma, spiked 3 ng/mL): 106.8 ± 8.8
- Stability, Autosampler 4 °C for 24 h ([1]; plasma, spiked 40 ng/mL): 96.6 ± 6.3
- Stability, Long-Term (at −80 °C for 30 Days) ([1]; plasma, spiked 40 ng/mL): 93.6 ± 8.2
- Stability, Short-Term (at Room Temperature for 4 h) ([1]; plasma, spiked 40 ng/mL): 100.1 ± 4.1
- Stability, Three Freeze–Thaw Cycles ([1]; plasma, spiked 40 ng/mL): 95.3 ± 8.3
- Stability, Autosampler 4 °C for 24 h ([1]; plasma, spiked 1280 ng/mL): 98.3 ± 2.9
- Stability, Long-Term (at −80 °C for 30 Days) ([1]; plasma, spiked 1280 ng/mL): 95.8 ± 8.4
- Stability, Short-Term (at Room Temperature for 4 h) ([1]; plasma, spiked 1280 ng/mL): 97.8 ± 4.1
- Stability, Three Freeze–Thaw Cycles ([1]; plasma, spiked 1280 ng/mL): 110.6 ± 5.6
- stability during processing procedures ([1]; room temperature for 4 h and autosampler for 24 h, deviation in concentration within ±15% from nominal values): stable
- Stability, Autosampler 4 °C for 24 h ([1]; spleen, spiked 3 ng/mL): 103.8 ± 8.5
- Stability, Long-Term (at −80 °C for 30 Days) ([1]; spleen, spiked 3 ng/mL): 89.5 ± 8.9
- Stability, Short-Term (at Room Temperature for 4 h) ([1]; spleen, spiked 3 ng/mL): 96.2 ± 2.2
- Stability, Three Freeze–Thaw Cycles ([1]; spleen, spiked 3 ng/mL): 98.4 ± 6.6
- Stability, Autosampler 4 °C for 24 h ([1]; spleen, spiked 40 ng/mL): 105.8 ± 3.6
- Stability, Long-Term (at −80 °C for 30 Days) ([1]; spleen, spiked 40 ng/mL): 102.9 ± 8.7
- Stability, Short-Term (at Room Temperature for 4 h) ([1]; spleen, spiked 40 ng/mL): 100.6 ± 3.8
- Stability, Three Freeze–Thaw Cycles ([1]; spleen, spiked 40 ng/mL): 112.2 ± 6.5
- Stability, Autosampler 4 °C for 24 h ([1]; spleen, spiked 1280 ng/mL): 101.2 ± 4.2
- Stability, Long-Term (at −80 °C for 30 Days) ([1]; spleen, spiked 1280 ng/mL): 104.1 ± 5.2
- Stability, Short-Term (at Room Temperature for 4 h) ([1]; spleen, spiked 1280 ng/mL): 98.4 ± 2.1
- Stability, Three Freeze–Thaw Cycles ([1]; spleen, spiked 1280 ng/mL): 92.4 ± 7.8
- Stability, Autosampler 4 °C for 24 h ([1]; stomach, spiked 3 ng/mL): 87.5 ± 3.3
- Stability, Long-Term (at −80 °C for 30 Days) ([1]; stomach, spiked 3 ng/mL): 92.6 ± 6.5
- Stability, Short-Term (at Room Temperature for 4 h) ([1]; stomach, spiked 3 ng/mL): 100.6 ± 7.6
- Stability, Three Freeze–Thaw Cycles ([1]; stomach, spiked 3 ng/mL): 103.2 ± 4.2
- Stability, Autosampler 4 °C for 24 h ([1]; stomach, spiked 40 ng/mL): 104.8 ± 7.8
- Stability, Long-Term (at −80 °C for 30 Days) ([1]; stomach, spiked 40 ng/mL): 95.6 ± 5.8
- Stability, Short-Term (at Room Temperature for 4 h) ([1]; stomach, spiked 40 ng/mL): 99.0 ± 4.3
- Stability, Three Freeze–Thaw Cycles ([1]; stomach, spiked 40 ng/mL): 114.8 ± 6.6
- Stability, Autosampler 4 °C for 24 h ([1]; stomach, spiked 1280 ng/mL): 98.5 ± 2.6
- Stability, Long-Term (at −80 °C for 30 Days) ([1]; stomach, spiked 1280 ng/mL): 94.1 ± 6.1
- Stability, Short-Term (at Room Temperature for 4 h) ([1]; stomach, spiked 1280 ng/mL): 99.1 ± 4.2
- Stability, Three Freeze–Thaw Cycles ([1]; stomach, spiked 1280 ng/mL): 97.7 ± 4.7
- effect of storage on quantification ([1]; three freeze–thaw cycles and long-term storage (−80 °C for 30 days)): no effect on the quantification
- phospho-p38α expression (p38α): decreasing the phospho-p38α expression
- concentration in the brain [2]: lower concentration in the brain
- distribution in the heart and spleen [2]: low distribution level and rapid elimination
- highest concentration in intestine [2, 4]: 378.2 ± 36.8 ng/mL
- highest concentration in kidney [2, 4]: 497.7 ± 51.9 ng/mL
- highest concentration in liver [2, 4]: 418.8 ± 40.3 ng/mL
- highest concentration in lung [2, 4]: 800.6 ± 79.0 ng/mL
- highest concentration in stomach [2, 4]: 429.6 ± 27.2 ng/mL
- anticancer activity against non-small-cell lung cancer [3]: significant anticancer activity
